{"source": "patent US20030180248A1", "about": "“Cosmetic composition containing the extract of mountain ginseng adventitious roots” (priority 2001, published 2003)", "system": "transformed mouse fibroblast L929 cells", "experiment": "Cytotoxicity, Neutral Red uptake", "assay_type": "cell-based", "conditions": "48 hours", "from_the_text": "Extracts from tissue-cultured mountain ginseng adventitious roots, prepared in Examples 1 to 3, were examined for cytotoxicity, in comparison with a red ginseng extract and arbutin, which are conventionally used as skin-whitening materials.\nAfter being recovered by trypsinization, the transformed mouse fibroblast L929 cells were suspended in DMEM supplemented with 2% BCS (bovine calf serum), and the suspension was aliquoted at a concentration of 2,500-3,000 cells/well into each well of 96 well tissue culture plates, followed by incubation at 37° C. for 48 hours in a 5% CO2 atmosphere. After substitution of the medium with a fresh, serum-free one, the cells were treated with the test materials shown in Table 2, below, and cultured for 48 hours. To each well, Neutral Red (50 μg/ml) was added, and reacted with cells for 3 hours. After completion of the accumulation of Neutral Red in live cells, the dye was fixed with the use of 1.0% formalin/1.0% CaCl2. Neutral Red was extracted from cells using 1.0% acetic acid/50% ethanol solution. The extracted Neutral Red was analyzed by ELISA to measure the cytotoxicity of the test materials according to concentrations.", "data": [{"compound": "OC[C@H]1O[C@@H](Oc2ccc(O)cc2)[C@H](O)[C@@H](O)[C@@H]1O", "note": "[Arbutin]", "values": [{"measurement": "NR50", "setting": "Neutral Red", "result": 0.29, "unit": "w/w %"}, {"measurement": "Cytotoxicity (Neutral Red reading)", "setting": "concentration 0.001 w/w %", "result": 98}, {"measurement": "Cytotoxicity (Neutral Red reading)", "setting": "concentration 0.01 w/w %", "result": 82}, {"measurement": "Cytotoxicity (Neutral Red reading)", "setting": "concentration 0.1 w/w %", "result": 63}, {"measurement": "Cytotoxicity (Neutral Red reading)", "setting": "concentration 1 w/w %", "result": 2}]}]}
